Test in all cases: NCI-60 cell line screen, 48 h
Experiment [1] concerns OVCAR-8.
Experiment [2] has as its system SK-OV-3.
The test system of experiment [3] is A498.
Experiment [4] concerns UACC-257.
Experiment [5] has as its system OVCAR-3.
For experiment [6], the system named is COLO 205.
For experiment [7], the system named is HCC 2998.
The test system of experiment [8] is DU-145.
The subject of experiment [9] is BT-549.
The test system of experiment [10] is Hs-578T.
Experiment [11] deals with RXF 393.
Experiment [12] deals with TK-10.
The subject of experiment [13] is 786-0.
The test system of experiment [14] is RPMI-8226.
Experiment [15] concerns LOX IMVI.
Experiment [16] deals with UACC-62.
The subject of experiment [17] is U-251.
Experiment [18] relates to SW-620.
The subject of experiment [19] is HOP-62.
Experiment [20] deals with NCI-H460.

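96-well plates; 48 h exposure; 5 concentrations. Endpoints by linear interpolation between flanking doses. Not reached: highest tested concentration assigned. GI50: concentration for 50% inhibition of growth.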 Calls of active or inactive are those of the source. Rule as the data show it: active = GI50 up to about 1.1 µM and inactive = higher.

Consider `CNc1nc2c(C)ccc3nc(N(C)C)[nH]c3c-2n1`, for which the GI50 is 34.5 µM (inactive) in experiment [1]; 21.1 µM (inactive) in [2]; 85.1 µM (inactive) in experiment [3]; 33.3 µM (inactive) in experiment [4]; 82.2 µM (inactive) in experiment [5]; 26.7 µM (inactive) in experiment [6]. The GI50 is 28.2 µM (inactive) in [7]; 42.2 µM (inactive) in experiment [8]; 84.7 µM (inactive) in experiment [9]; 97.9 µM (inactive) in experiment [10]; 25.7 µM (inactive) in experiment [11]; > 100 µM (inactive) in experiment [12]. Besides, the GI50 in experiment [13] was 51.3 µM (inactive); in experiment [14], 20.7 µM (inactive); in [15], 31.7 µM (inactive); in experiment [16], 68.7 µM (inactive); in [17], 58.3 µM (inactive); in [18] it was 47.3 µM (inactive). The GI50 in experiment [19] is 43.7 µM (inactive); in experiment [20], 26.2 µM (inactive).

For the molecule `Cc1cc(OCc2nnc3sc(NC(=O)c4ccccc4)nn23)ccc1Cl`, the GI50 is 20.7 µM (inactive) in [1]; 59.6 µM (inactive) in [2]; 27.2 µM (inactive) in [3]; 37.7 µM (inactive) in [4]; 30.7 µM (inactive) in [5]; 53.5 µM (inactive) in experiment [6]. In addition, the GI50 in experiment [7] is 26.7 µM (inactive); in [8], 24.4 µM (inactive); in experiment [9], 41.7 µM (inactive); in [10], 32.1 µM (inactive); in [11], 30.6 µM (inactive); in experiment [12], 62.4 µM (inactive). Further, the GI50 is 33.1 µM (inactive) in experiment [13]; 26.7 µM (inactive) in experiment [14]; 30.1 µM (inactive) in [15]; 33.3 µM (inactive) in experiment [16]; 33.3 µM (inactive) in experiment [17]; > 100 µM (inactive) in [18]. Besides, the GI50 in experiment [19] is 20.1 µM (inactive); in experiment [20] it was 39.1 µM (inactive).

`COc1cc2oc3ccccc3c(=O)c2cc1CSc1ccccc1N`: the GI50 was 33.5 µM (inactive) in [1]; 28 µM (inactive) in experiment [2]; 17.3 µM (inactive) in [3]; 47.5 µM (inactive) in experiment [4]; 18.5 µM (inactive) in experiment [5]; 15.8 µM (inactive) in [6]. In addition, the GI50 was 5.24 µM (inactive) in [7]; 21.1 µM (inactive) in [8]; 29.3 µM (inactive) in experiment [9]; 36 µM (inactive) in experiment [10]; 11 µM (inactive) in [11]; 35.5 µM (inactive) in experiment [12]. In addition, the GI50 in experiment [13] is 35.9 µM (inactive); in experiment [14], 9.46 µM (inactive); in [15] it was 29.7 µM (inactive); in [16], 9.71 µM (inactive); in [17] it was 22.9 µM (inactive); in [18], 6.81 µM (inactive). Besides, the figures for the GI50 in experiment [19] and in experiment [20] were 22.8 µM (inactive) and 15.1 µM (inactive), respectively.

Take `CN(Cc1cnc2nc(N)nc(N)c2n1)c1ccc(C(=O)NC(CCC(=O)O)C(=O)O)c2ccccc12` (stereo not given): the GI50 was 0.00378 µM (active) in experiment [1]; 0.0456 µM (active) in experiment [2]; 0.0526 µM (active) in experiment [3]; 0.0425 µM (active) in [4]; 0.0429 µM (active) in experiment [5]; 0.0391 µM (active) in experiment [6]. Moreover, the GI50 in experiment [7] is 0.00145 µM (active); in [8] it was 0.00938 µM (active); in experiment [9], 0.092 µM (active); in [10], 0.0982 µM (active); in experiment [11], < 0.1 µM (active); in experiment [12], 0.0458 µM (active). The GI50 in experiment [13] is 0.00303 µM (active); in [14], 0.00764 µM (active); in experiment [15], 0.000508 µM (active); in experiment [16], 0.00148 µM (active); in experiment [17], 0.0114 µM (active); in [18], 0.00137 µM (active). Besides, the GI50 is < 0.0185 µM (active) in experiment [19] and 0.0011 µM (active) in [20].

Consider `Cn1c(N)c(/C=N/NC(=O)CC#N)c(=O)n(C)c1=O`, for which the GI50 in experiment [1], in experiment [2], in [3], in experiment [4], in experiment [5] and in experiment [6] was > 100 µM (inactive) each time. Moreover, the GI50 in experiment [7], in experiment [8], in experiment [9], in [10], in experiment [11] and in experiment [12] was > 100 µM (inactive) in each case. Also, the GI50 in [13], in experiment [14], in experiment [15], in [16], in experiment [17] and in experiment [18] was > 100 µM (inactive) throughout. Further, the GI50 in [19] and in experiment [20] was > 100 µM (inactive) throughout.

As for `O=c1[nH]c(=O)n(C2CC(O)C(CO)O2)c2nc3cc4ccccc4cc3nc12` (stereo not given), the GI50 was 54.3 µM (inactive) in experiment [1]; > 100 µM (inactive) in experiment [2]; > 100 µM (inactive) in [3]; > 100 µM (inactive) in experiment [4]; > 100 µM (inactive) in experiment [5]; > 100 µM (inactive) in experiment [6]. For the same molecule, the GI50 is > 100 µM (inactive) in [7]; > 100 µM (inactive) in experiment [8]; > 100 µM (inactive) in [9]; > 100 µM (inactive) in experiment [10]; 26.5 µM (inactive) in experiment [11]; > 100 µM (inactive) in [12]. Besides, the GI50 in experiment [13] is > 100 µM (inactive); in experiment [14] it was > 100 µM (inactive); in experiment [15], > 100 µM (inactive); in experiment [16], > 100 µM (inactive); in [17], 59.2 µM (inactive); in experiment [18], > 100 µM (inactive). For the same molecule, the GI50 in experiment [19] is 33.9 µM (inactive); in [20] it was > 100 µM (inactive).

Values taken from ChEMBL document CHEMBL1201862, “PubChem BioAssay data set” (2004).
